{"source": "patent US8410289B2", "about": "“Spirocyclic 3'-alkoxytetramic acids and-tetronic acids” (Bayer Cropscience AG, priority 2004, dated 2013)", "key": {"Summer wheat": {"system": "Summer wheat", "assay": "Herbicidal post-emergence action with/without safener (Example H, container trials with cereals, greenhouse or outdoors)", "assay_type": "in vivo", "conditions": "without safener", "method": "(§1) Herbicidal Post-Emergence Action\n(§2) Seeds of monocotyledonous and dicotyledonous weed and crop plants are placed into sandy loam in wood fibre pots or in plastic pots, covered with soil and cultivated in a greenhouse, during the vegetation period also outdoors outside of the greenhouse, under good growth conditions. 2-3 weeks after sowing, the test plants are treated at the one- to three-leaf stage. The test compounds, formulated as wettable powders (WP) or emulsifiable concentrates (EC) are, in various dosages with a water application rate of 300 l/ha (converted), with wetting agent (0.2 to 0.3%) added, sprayed onto the plants and the surface of the soil. 3-4 weeks after the treatment of the test plants, the effect of the preparations is rated visually in comparison to untreated controls (herbicidal effect in per cent (%): 100%=the plants have died, 0% effect=like control plants).\n(§3) If it is additionally to be tested as to whether safeners can improve the crop plant compatibility of test substances in the case of crop plants, the following options are used for applying the safener: • seeds of the crop plants are, before sowing, dressed with the safener substance (the amount of safener stated in per cent, based on the weight of the seed) • before the application of the test substances, the crop plants are sprayed with the safener at a certain application rate per hectare (usually 1 day before the application of the test substances) • the safener is applied together with the test substance as a tank mix (the amount of safener is stated in g/ha or as a ratio, based on the herbicide).\n(§4) By comparing the effect of the test substances on crop plants without or with safener treatment, it is possible to assess the effect of the safener substance."}, "barley": {"system": "barley", "assay": "Herbicidal post-emergence action with/without safener (Example H, container trials with cereals, greenhouse or outdoors)", "assay_type": "in vivo", "conditions": "greenhouse, without safener", "method": "as §1, §2, §3, §4"}, "[1]": {"assay": "log P determination by HPLC on reverse-phase column (C 18), EEC-Directive 79/831 Annex V.A8", "assay_type": "physicochemical", "conditions": "compounds of formula (I-2-a); generally isomer mixtures; those marked 1) were separated into cis and trans diastereomers", "method": "• The log P values given in the tables and preparation examples above are determined in accordance with EEC-Directive 79/831 Annex V.A8 by HPLC (High Performance Liquid Chromatography) on a reverse-phase column (C 18). Temperature: 43° C.\nThe determination is carried out in the acidic range at pH 2.3 using the mobile phases 0.1% aqueous phosphoric acid and acetonitrile; linear gradient from 10% acetonitrile to 95% acetonitrile.\nThe LC-MS determination in the acidic range is carried out at pH 2.7 using the mobile phases 0.1% aqueous formic acid and acetonitrile (contains 0.1% formic acid); linear gradient from […] acetonitrile to 95% acetonitrile.\nThe LC-MS determination in the neutral range is carried out at pH 7.8 using the mobile phases 0.001 molar aqueous ammonium bicarbonate solution and acetonitrile; linear gradient from 10% acetonitrile to 95% acetonitrile.\nThe calibration is carried out using unbranched alkan-2-ones (with 3 to 16 carbon atoms) with known log P values (determination of the log P values by retention times using linear interpolation between two successive alkanones)."}}, "data": [{"smiles": "COC1CCCC2(C1)NC(=O)C(c1c(C)cc(C)cc1C)=C2O", "note": "(mixture of isomers) [Example I-1-a-2]", "values": [{"measurement": "Summer wheat observed (%)", "setting": "Summer wheat; container trial in a greenhouse, application rate 100 g of a.i./ha", "value": 60, "unit": "%"}]}, {"smiles": "CCCCOC1CCCC2(C1)NC(=O)C(c1c(Cl)cc(Br)cc1CC)=C2OC(=O)COC", "note": "(single isomer, unassigned) [Ex. I-1-b-8]", "values": [{"measurement": "Summer wheat observed (%)", "setting": "Summer wheat; greenhouse, 25 g of a.i./ha", "value": 30, "unit": "%"}, {"measurement": "Summer wheat observed (%)", "setting": "Summer wheat; greenhouse, 50 g of a.i./ha", "value": 50, "unit": "%"}, {"measurement": "Summer barley observed (%)", "setting": "barley; 25 g of a.i./ha", "value": 30, "unit": "%"}, {"measurement": "Summer barley observed (%)", "setting": "barley; 50 g of a.i./ha", "value": 70, "unit": "%"}]}, {"smiles": "CCCCOC1CCCC2(C1)NC(=O)C(c1c(Cl)cc(Br)cc1CC)=C2OC(=O)C(C)C", "note": "(single isomer, unassigned) [Ex. I-1-b-9]", "values": [{"measurement": "Summer wheat observed (%)", "setting": "Summer wheat; greenhouse, 25 g of a.i./ha", "value": 20, "unit": "%"}, {"measurement": "Summer wheat observed (%)", "setting": "Summer wheat; greenhouse, 50 g of a.i./ha", "value": 90, "unit": "%"}, {"measurement": "Summer barley observed (%)", "setting": "barley; 25 g of a.i./ha", "value": 30, "unit": "%"}, {"measurement": "Summer barley observed (%)", "setting": "barley; 50 g of a.i./ha", "value": 90, "unit": "%"}]}, {"smiles": "CCc1cc(C)cc(Br)c1C1=C(OC(=O)C(C)C)C2(CCCC(OC)C2)NC1=O", "note": "(single isomer, unassigned) [Ex. I-1-b-11]", "values": [{"measurement": "Summer wheat observed (%)", "setting": "Summer wheat; greenhouse, 25 g of a.i./ha", "value": 10, "unit": "%"}, {"measurement": "Summer wheat observed (%)", "setting": "Summer wheat; greenhouse, 50 g of a.i./ha", "value": 70, "unit": "%"}]}, {"smiles": "CCCCOC1CCCC2(C1)NC(=O)C(c1c(Br)cc(C)cc1CC)=C2OC(=O)COC", "note": "(single isomer, unassigned) [Ex. I-1-b-14]", "values": [{"measurement": "Summer wheat observed (%)", "setting": "Summer wheat; greenhouse, 3.125 g of a.i./ha", "value": 20, "unit": "%"}, {"measurement": "Summer wheat observed (%)", "setting": "Summer wheat; greenhouse, 6.25 g of a.i./ha", "value": 30, "unit": "%"}]}, {"smiles": "CCOC(=O)OC1=C(c2c(Br)cc(C)cc2CC)C(=O)NC12CCCC(OCC)C2", "note": "(single isomer, unassigned) [Ex. I-1-c-9]", "values": [{"measurement": "Summer wheat observed (%)", "setting": "Summer wheat; greenhouse, 50 g of a.i./ha", "value": 30, "unit": "%"}, {"measurement": "Summer wheat observed (%)", "setting": "Summer wheat; greenhouse, 100 g of a.i./ha", "value": 60, "unit": "%"}]}, {"smiles": "CCCOC1CCCC2(C1)NC(=O)C(c1c(Br)cc(C)cc1CC)=C2O", "note": "(single isomer, unassigned) [Example I-1-a-12]", "values": [{"measurement": "Summer wheat observed (%)", "setting": "Summer wheat; greenhouse, 6.25 g of a.i./ha", "value": 10, "unit": "%"}, {"measurement": "Summer wheat observed (%)", "setting": "Summer wheat; greenhouse, 12.5 g of a.i./ha", "value": 97, "unit": "%"}, {"measurement": "Summer barley observed (%)", "setting": "barley; 3.125 g of a.i./ha", "value": 30, "unit": "%"}, {"measurement": "Summer barley observed (%)", "setting": "barley; 6.25 g of a.i./ha", "value": 97, "unit": "%"}, {"measurement": "Summer barley observed (%)", "setting": "barley; 12.5 g of a.i./ha", "value": 99, "unit": "%"}]}, {"smiles": "CCc1cc(C)cc(Br)c1C1=C(O)C2(CCCC(OC)C2)NC1=O", "note": "(single isomer, unassigned) [Example I-1-a-14]", "values": [{"measurement": "Summer wheat observed (%)", "setting": "Summer wheat; greenhouse, 12.5 g of a.i./ha", "value": 30, "unit": "%"}, {"measurement": "Summer wheat observed (%)", "setting": "Summer wheat; greenhouse, 25 g of a.i./ha", "value": 93, "unit": "%"}, {"measurement": "Summer barley observed (%)", "setting": "barley; 12.5 g of a.i./ha", "value": 30, "unit": "%"}, {"measurement": "Summer barley observed (%)", "setting": "barley; 25 g of a.i./ha", "value": 93, "unit": "%"}]}, {"smiles": "CCCCOC1CCCC2(C1)NC(=O)C(c1c(Br)cc(C)cc1CC)=C2O", "note": "(single isomer, unassigned) [Example I-1-a-17]", "values": [{"measurement": "Summer wheat observed (%)", "setting": "Summer wheat; greenhouse, 6.25 g of a.i./ha", "value": 10, "unit": "%"}, {"measurement": "Summer wheat observed (%)", "setting": "Summer wheat; greenhouse, 12.5 g of a.i./ha", "value": 60, "unit": "%"}, {"measurement": "Summer wheat observed (%)", "setting": "Summer wheat; greenhouse, 25 g of a.i./ha", "value": 70, "unit": "%"}]}, {"smiles": "CCOC1CCCC2(C1)NC(=O)C(c1c(Br)cc(C)cc1CC)=C2O", "note": "(single isomer, unassigned) [Example I-1-a-18]", "values": [{"measurement": "Summer wheat observed (%)", "setting": "Summer wheat; greenhouse, 3.125 g of a.i./ha", "value": 30, "unit": "%"}, {"measurement": "Summer wheat observed (%)", "setting": "Summer wheat; greenhouse, 6.25 g of a.i./ha", "value": 40, "unit": "%"}, {"measurement": "Summer wheat observed (%)", "setting": "Summer wheat; greenhouse, 12.5 g of a.i./ha", "value": 95, "unit": "%"}, {"measurement": "Summer barley observed (%)", "setting": "barley; 6.25 g of a.i./ha", "value": 50, "unit": "%"}, {"measurement": "Summer barley observed (%)", "setting": "barley; 12.5 g of a.i./ha", "value": 93, "unit": "%"}]}, {"smiles": "CCCOC1CCCC2(C1)NC(=O)C(c1c(C)cc(C)cc1C)=C2O", "note": "(single isomer, unassigned) [Example I-1-a-19]", "values": [{"measurement": "Summer barley observed (%)", "setting": "barley; 50 g of a.i./ha", "value": 25, "unit": "%"}, {"measurement": "Summer barley observed (%)", "setting": "barley; 100 g of a.i./ha", "value": 30, "unit": "%"}]}, {"smiles": "CCCCOC1CCCC2(C1)OC(=O)C(c1ccc(C)cc1Cl)=C2O", "note": "(stereo not drawn) [I-2-a-56]", "values": [{"measurement": "logP", "setting": "[1]", "value": 3.32}]}, {"smiles": "CCCCOC1CCCC2(C1)OC(=O)C(c1ccccc1C)=C2O", "note": "(stereo not drawn) [I-2-a-57]", "values": [{"measurement": "logP", "setting": "[1]", "value": 3.03}]}, {"smiles": "CCCCOC1CCCC2(C1)OC(=O)C(c1ccc(C)cc1C)=C2O", "note": "(stereo not drawn) [I-2-a-58]", "values": [{"measurement": "logP", "setting": "[1]", "value": 3.32}]}, {"smiles": "CCCCOC1CCCC2(C1)OC(=O)C(c1cc(C)c(C)cc1Br)=C2O", "note": "(stereo not drawn) [I-2-a-59]", "values": [{"measurement": "logP", "setting": "[1]", "value": 3.57}]}, {"smiles": "CCCCOC1CCCC2(C1)OC(=O)C(c1c(C)cc(C)cc1Cl)=C2O", "note": "(stereo not drawn) [I-2-a-60]", "values": [{"measurement": "logP", "setting": "[1]", "value": 3.49}]}, {"smiles": "CCCCOC1CCCC2(C1)OC(=O)C(c1c(C)cc(C)c(C)c1C)=C2O", "note": "(stereo not drawn) [I-2-a-61]", "values": [{"measurement": "logP", "setting": "[1]", "value": 3.76}]}, {"smiles": "CCCCOC1CCCC2(C1)OC(=O)C(c1cc(C)ccc1C)=C2O", "note": "(stereo not drawn) [I-2-a-62]", "values": [{"measurement": "logP", "setting": "[1]", "value": 3.36}]}, {"smiles": "CCCCOC1CCCC2(C1)OC(=O)C(c1c(C)cc(Br)cc1CC)=C2O", "note": "(stereo not drawn) [I-2-a-63]", "values": [{"measurement": "logP", "setting": "[1]", "value": 3.99}]}]}
